According to patent publication EP0747355A1, “NOVEL CARBAMATE DERIVATIVE AND MEDICINAL COMPOSITION CONTAINING THE SAME” (priority 1994, dated 1995):
Like-named read-outs stand apart in the source and are kept apart here.

How the values were obtained:
[1] = test system: salivary secretion in rat; assay: Test on salivary secretion in rat (oxotremorine-induced); type: in vivo, Male Wistar rats
[2] = test system: rhythmic bladder contraction in rat; assay: Test on rhythmic bladder contraction in rat (in vivo muscarinic antagonism); design: species or system Wistar female rats
[3] = biological target: T1, Muscarinic M3 receptor (Rattus norvegicus, UniProt P08483); assay: Muscarinic M3 receptor binding test (submandibular gland membranes, [3H]-N-methylscopolamine); design: species or system Wistar male rats
T1 construct: except that submandibular gland membranes were used and [^3H]-N-methylscopolamine was used as the labeled ligand; from tissue; host or cells: rat submandibular gland membranes (Wistar male rats, Nippon SLC)
T1 sequence (P08483 whole entry): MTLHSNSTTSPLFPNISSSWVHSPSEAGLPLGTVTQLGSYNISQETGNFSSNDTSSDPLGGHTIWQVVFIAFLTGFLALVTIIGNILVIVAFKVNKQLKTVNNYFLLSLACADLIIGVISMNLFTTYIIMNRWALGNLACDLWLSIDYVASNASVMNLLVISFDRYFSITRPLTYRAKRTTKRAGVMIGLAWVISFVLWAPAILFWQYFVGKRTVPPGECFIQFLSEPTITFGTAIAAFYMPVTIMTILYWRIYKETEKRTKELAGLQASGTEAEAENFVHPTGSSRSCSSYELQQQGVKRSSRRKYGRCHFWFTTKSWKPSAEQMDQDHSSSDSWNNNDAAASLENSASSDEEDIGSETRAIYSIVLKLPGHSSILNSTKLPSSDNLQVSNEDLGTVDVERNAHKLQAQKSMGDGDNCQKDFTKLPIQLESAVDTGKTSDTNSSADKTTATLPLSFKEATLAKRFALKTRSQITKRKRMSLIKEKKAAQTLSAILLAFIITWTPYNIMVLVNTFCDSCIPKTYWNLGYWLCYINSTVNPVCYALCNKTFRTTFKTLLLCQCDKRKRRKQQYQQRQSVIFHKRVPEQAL

[4] = test system: bronchospasm in guinea pig; type: in vivo, Hartley male guinea pig
[5] = biological target: T2, muscarinic M2 receptors (Rattus norvegicus, UniProt P10980); assay: biochemical; type: binding, Wistar male rats
T2 sequence (P10980 1-466): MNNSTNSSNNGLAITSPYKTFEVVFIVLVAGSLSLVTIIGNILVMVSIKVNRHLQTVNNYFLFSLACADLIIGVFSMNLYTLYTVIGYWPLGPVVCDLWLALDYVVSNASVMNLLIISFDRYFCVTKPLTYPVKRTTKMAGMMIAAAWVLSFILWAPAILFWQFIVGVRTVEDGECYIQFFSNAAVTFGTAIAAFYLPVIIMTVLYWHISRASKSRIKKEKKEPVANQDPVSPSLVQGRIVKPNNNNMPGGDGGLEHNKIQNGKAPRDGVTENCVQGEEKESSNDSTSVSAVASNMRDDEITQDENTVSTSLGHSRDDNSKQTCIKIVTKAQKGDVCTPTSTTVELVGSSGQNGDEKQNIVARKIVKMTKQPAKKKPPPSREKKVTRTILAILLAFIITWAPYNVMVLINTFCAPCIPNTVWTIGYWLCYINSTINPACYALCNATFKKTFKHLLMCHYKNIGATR

[6] = oxotremorine 0.8 µmol/kg 15 minutes after compound, saliva of 5 minutes
[7] = urethane anesthesia, cumulative i.v. administration, 30% inhibition of peak bladder contractions
[8] = rat submandibular gland membranes, [3H]-N-methylscopolamine, read-out: Ki (nM) M3 binding Test
[9] = read-out: Ki (nM) M2 binding Test
[10] = methacholine 5 µg/kg i.v., 3 minutes after compound i.v.

Row | Molecule | Salivary Secretion Test ED50 (mg/kg i.v.) [1, 6] | Rhythmic Bladder Contraction Test ED30 (mg/kg i.v.) [2, 7] | M2/M3 ([3]; ratio of Ki M2 to Ki M3) | Bronchospasm Test ID50 (mg/kg i.v.) ([4]; in vivo, iv) | Ki [3] | Ki [5] | also measured
1 | CCN(CC)CC#CCOC(=O)C(O)(c1ccccc1)C1CCCCC1 (centres unmarked) [Oxybutynin, reference compound] | 0.18 mg/kg i.v. | 0.24 mg/kg i.v. |  |  |  |  | 
2 | O=C(Nc1ccccc1-c1ccccc1)OC1CCN(Cc2cccc(O)c2)CC1.O=C(O)C(=O)O [Example 15, 1-(3-Hydroxybenzyl)-4-piperidyl N-(2-biphenylyl)carbamate monooxalate] | 0.36 mg/kg i.v. | 0.058 mg/kg i.v. |  |  |  |  | 
3 | C[N+]1(C)CCC(OC(=O)Nc2ccccc2-c2ccccc2)CC1.[I-] [Example 7, 4-[[N-(2-biphenylyl)carbamoyl]oxy]-1,1-dimethylpiperidinium iodide] |  |  | 25.8 | 0.0054 mg/kg i.v. |  |  | Ki [3, 8]: 0.57 nM; Ki [5, 9]: 14.7 nM
4 | Cl.O=C(Nc1ccccc1-c1ccccc1)OC12CCN(CC1)CC2 [Example 4, 4-quinuclidinyl N-(2-biphenylyl)carbamate monohydrochloride] |  |  |  | 0.0082 mg/kg i.v. | 0.39 nM | 5.89 nM | Salivary Secretion Test ED50 (mg/kg i.v.) ([1]; in vivo, iv): 0.10 mg/kg i.v.; M2/M3 [3]: 15.2; Rhythmic Bladder Contraction Test ED30 (mg/kg i.v.) ([2]; in vivo, iv): 0.014 mg/kg i.v.
5 | C[N+]12CCC(CC1)C(OC(=O)Nc1ccccc1-c1ccccc1)C2.[I-] (centres unmarked) [Example 3, 3-[[N-(2-biphenylyl)carbamoyl]oxy]-1-methylquinuclidinium iodide] |  |  | 25.7 |  | 0.56 nM | 14.4 nM | Bronchospasm Test ID50 (mg/kg i.v.) [4, 10]: 0.0038 mg/kg i.v.
6 | CN1[C@@H]2CC[C@H]1C[C@@H](OC(=O)C(CO)c1ccccc1)C2 (some centres unmarked) [Atropine, reference compound] |  |  |  | 0.0008 mg/kg i.v. |  |  | Salivary Secretion Test ED50 (mg/kg i.v.) ([1]; in vivo, iv): 0.0084 mg/kg i.v.; Rhythmic Bladder Contraction Test ED30 (mg/kg i.v.) ([2]; in vivo, iv): 0.009 mg/kg i.v.
7 | Cl.O=C(Nc1ccccc1-c1ccccc1)OC1CN2CCC1CC2 (centres unmarked) [Example 1, 3-quinuclidinyl N-(2-biphenylyl)carbamate monohydrochloride] |  |  | 27.6 |  | 0.94 nM | 25.9 nM | Bronchospasm Test ID50 (mg/kg i.v.) [4, 10]: 0.0045 mg/kg i.v.
8 | 3-Quinuclidinyl N-[2-(2-cyclohexen-1-yl)phenyl]carbamate hemioxalate [Example 61] | 0.14 mg/kg i.v. | 0.029 mg/kg i.v. |  |  |  |  | 
9 | 3-quinuclidinyl N-[2-(1H-pyrrol-1-yl)phenyl]carbamate monohydrochloride [Example 2] | 0.11 mg/kg i.v. | 0.018 mg/kg i.v. | 20.4 |  |  |  | Ki [3, 8]: 4.89 nM; Ki [5, 9]: 100 nM
